target: T1, human recombinant PLK4 (Homo sapiens, UniProt O00444); assay: PLK4 Biochemical Assay (ADP-Glo); conditions: 0.5 nM PLK4, 8.0 μM ATP, 4.7 μM MBP, 6 hours at RT
T1 construct: purchased ThermoFisher PV6396
T1 sequence (O00444 1-970): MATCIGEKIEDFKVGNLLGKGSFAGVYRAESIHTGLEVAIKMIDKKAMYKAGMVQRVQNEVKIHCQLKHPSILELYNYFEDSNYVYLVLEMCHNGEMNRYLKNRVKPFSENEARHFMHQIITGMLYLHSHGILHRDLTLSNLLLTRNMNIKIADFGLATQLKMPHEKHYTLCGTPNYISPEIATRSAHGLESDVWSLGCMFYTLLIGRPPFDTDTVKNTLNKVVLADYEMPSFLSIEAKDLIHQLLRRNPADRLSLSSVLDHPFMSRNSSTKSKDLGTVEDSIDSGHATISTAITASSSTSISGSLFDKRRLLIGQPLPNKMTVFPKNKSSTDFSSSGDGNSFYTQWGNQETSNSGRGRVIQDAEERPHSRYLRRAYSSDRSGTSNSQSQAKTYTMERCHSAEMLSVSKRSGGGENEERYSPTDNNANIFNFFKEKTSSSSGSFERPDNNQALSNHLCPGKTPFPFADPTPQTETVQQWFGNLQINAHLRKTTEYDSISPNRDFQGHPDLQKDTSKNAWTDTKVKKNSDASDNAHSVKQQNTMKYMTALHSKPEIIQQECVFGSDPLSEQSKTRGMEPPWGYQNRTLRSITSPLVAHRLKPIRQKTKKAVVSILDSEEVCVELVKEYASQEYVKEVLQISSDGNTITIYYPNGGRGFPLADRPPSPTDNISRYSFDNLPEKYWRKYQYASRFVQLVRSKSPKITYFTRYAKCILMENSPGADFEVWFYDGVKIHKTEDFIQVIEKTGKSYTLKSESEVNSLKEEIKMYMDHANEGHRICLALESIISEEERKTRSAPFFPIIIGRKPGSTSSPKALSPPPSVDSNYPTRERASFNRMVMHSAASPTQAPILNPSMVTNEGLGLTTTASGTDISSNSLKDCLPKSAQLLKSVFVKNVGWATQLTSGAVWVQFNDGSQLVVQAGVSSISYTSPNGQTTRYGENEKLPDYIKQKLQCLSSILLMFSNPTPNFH
Protocol: Activity of human recombinant PLK4 (ThermoFisher, cat #PV6396) was measured by quantification of adenosine diphosphate (ADP) using the ADP-Glo Kinase Assay Kit (Promega, cat #V9102). […] 5 μL of 1.0 nM PLK4 protein in assay buffer (50 mM HEPES, pH 7.5, 0.01% Brij-35, 0.01% BSA, 10 mM MgCl2, 1 mM EGTA, 1 mM DTT) was added to the plates. Test compounds and PLK4 were incubated for 15 minutes at room temperature (RT). […] Reactions were stopped and the remaining ATP depleted by adding 10 μL of ADP-Glo reagent (Promega, cat #V912B) and incubating for 40 minutes at RT. The simultaneous conversion of the remaining ADP to ATP and measurement of the newly synthesized ATP was achieved by addition of 20 μL Kinase Detection reagent (Promega, cat #V914B), incubation for 30 min at RT, and luminescence detection using the EnVision plate reader (PerkinElmer). […] The IC50 values reported in Table 2 were determined using four parameter non-linear regression curve fit.

SMILES	IC50
COc1ccc2c(c1)[C@]1(C[C@H]1c1ccc3c(Nc4nc(-c5ncco5)ccc4OC)n[nH]c3c1)C(=O)N2 [Example 4, (1R,2S)-5′-methoxy-2-(3-{[3-methoxy-6-(1,3-oxazol-2-yl)pyridin-2-yl]amino}-1H-indazol-6-yl)spiro[cyclopropane-1,3′-indol]-2′(1′H)-one]	0.682 nM
CCOc1cc(-c2cnccn2)ccc1Nc1n[nH]c2cc([C@@H]3C[C@@]34C(=O)Nc3ccc(OC)cc34)ccc12 [Example 7, (1R,2S)-2-{3-[2-ethoxy-4-(pyrazin-2-yl)anilino]-1H-indazol-6-yl}-5′-methoxyspiro[cyclopropane-1,3′-indol]-2′(1′H)-one]	1.71 nM
CCOc1cc2ccccc2nc1Nc1n[nH]c2cc([C@@H]3C[C@@]34C(=O)Nc3ccc(OC)cc34)ccc12 [Example 8, (1R,2S)-2-{3-[(3-ethoxyquinolin-2-yl)amino]-1H-indazol-6-yl}-5′-methoxyspiro[cyclopropane-1,3′-indol]-2′(1′H)-one]	1.83 nM
CCOc1cc(-n2cncn2)ccc1Nc1n[nH]c2cc([C@@H]3C[C@@]34C(=O)Nc3ccc(OC)cc34)ccc12 [Example 10, (1R,2S)-2-{3-[2-ethoxy-4-(1H-1,2,4-triazol-1-yl)anilino]-1H-indazol-6-yl}-5′-methoxyspiro[cyclopropane-1,3′-indol]-2′(1′H)-one]	0.557 nM
CCOc1cc2c(ccc[n+]2[O-])cc1Nc1n[nH]c2cc([C@@H]3C[C@@]34C(=O)Nc3ccc(OC)cc34)ccc12 [Example 12, 7-ethoxy-6-((6-((1R,2S)-5′-methoxy-2′-oxospiro[cyclopropane-1,3′-indolin]-2-yl)-1H-indazol-3-yl)amino)quinoline 1-oxide]	3.1 nM
COc1ccc2c(c1)[C@]1(C[C@H]1c1ccc3c(Nc4cc(-c5ncco5)ccc4OC)n[nH]c3c1)C(=O)N2 [Example 13, (1R,2S)-5′-methoxy-2-{3-[2-methoxy-5-(1,3-oxazol-2-yl)anilino]-1H-indazol-6-yl}spiro[cyclopropane-1,3′-indol]-2′(1′H)-one]	0.65 nM
COc1ccc2c(c1)[C@]1(C[C@H]1c1ccc3c(Nc4nc(-c5ncco5)cnc4OC)n[nH]c3c1)C(=O)N2 [Example 19, (1R,2S)-5′-methoxy-2-(3-{[3-methoxy-6-(1,3-oxazol-2-yl)pyrazin-2-yl]amino}-1H-indazol-6-yl)spiro[cyclopropane-1,3′-indol]-2′(1′H)-one]	0.99 nM
COc1ccc2c(c1)[C@]1(C[C@H]1c1ccc3c(Nc4nc(N(C)C)ncc4OC)n[nH]c3c1)C(=O)N2 [Example 20, (1R,2S)-2-(3-{[2-(dimethylamino)-5-methoxypyrimidin-4-yl]amino}-1H-indazol-6-yl)-5′-methoxyspiro[cyclopropane-1,3′-indol]-2′(1′H)-one]	2.8 nM
CCOc1cc(S(C)(=O)=O)ccc1Nc1n[nH]c2cc([C@@H]3C[C@@]34C(=O)N(C)c3ccc(OC)cc34)ccc12 [Example 23, (1R,2S)-2-{3-[2-ethoxy-4-(methanesulfonyl)anilino]-1H-indazol-6-yl}-5′-methoxy-1′-methylspiro[cyclopropane-1,3′-indol]-2′(1′H)-one]	1.41 nM
COc1ccc2c(c1)[C@]1(C[C@H]1c1ccc3c(Nc4nc(-c5cnn(C)c5)cnc4OC)n[nH]c3c1)C(=O)N2 [Example 24, (1R,2S)-5′-methoxy-2-(3-{[3-methoxy-6-(1-methyl-1H-pyrazol-4-yl)pyrazin-2-yl]amino}-1H-indazol-6-yl)spiro[cyclopropane-1,3′-indol]-2′(1′H)-one]	0.408 nM

Continued, values first:

IC50	SMILES
0.797 nM	COc1ccc2c(c1)[C@]1(C[C@H]1c1ccc3c(Nc4cc5c(cc4OC)S(=O)(=O)CC5)n[nH]c3c1)C(=O)N2 [Example 1, 6-methoxy-5-({6-[(1R,2S)-5′-methoxy-2′-oxo-1′,2′-dihydrospiro[cyclopropane-1,3′-indol]-2-yl]-1H-indazol-3-yl}amino)-2,3-dihydro-1H-1-benzothiophene-1,1-dione]
0.576 nM	COc1ccc2c(c1)[C@]1(C[C@H]1c1ccc3c(Nc4ccc(S(C)(=O)=O)cc4OC)n[nH]c3c1)C(=O)N2 [Example 2, (1R,2S)-2-{3-[4-(methanesulfonyl)-2-methoxyanilino]-1H-indazol-6-yl}-5′-methoxyspiro[cyclopropane-1,3′-indol]-2′(1′H)-one]
2.76 nM	COc1ccc2c(c1)[C@]1(C[C@H]1c1ccc3c(Nc4ccc(C(C)=O)cc4OC)n[nH]c3c1)C(=O)N2 [Example 3, (1R,2S)-2-[3-(4-acetyl-2-methoxyanilino)-1H-indazol-6-yl]-5′-methoxyspiro[cyclopropane-1,3′-indol]-2′(1′H)-one]
0.708 nM	CCS(=O)(=O)c1ccc(Nc2n[nH]c3cc([C@@H]4C[C@@]45C(=O)Nc4ccc(OC)cc45)ccc23)c(OC)c1 [Example 5, (1R,2S)-2-{3-[4-(ethanesulfonyl)-2-methoxyanilino]-1H-indazol-6-yl}-5′-methoxyspiro[cyclopropane-1,3′-indol]-2′(1′H)-one]
0.952 nM	COc1ccc2c(c1)[C@]1(C[C@H]1c1ccc3c(Nc4cc5c(cc4OC)S(=O)(=O)C=C5)n[nH]c3c1)C(=O)N2 [Example 6, 6-methoxy-5-({6-[(1R,2S)-5′-methoxy-2′-oxo-1′,2′-dihydrospiro[cyclopropane-1,3′-indol]-2-yl]-1H-indazol-3-yl}amino)-1H-1-benzothiophene-1,1-dione]
0.52 nM	COc1ccc2c(c1)[C@]1(C[C@H]1c1ccc3c(Nc4cc(-c5cnn(C)c5)ccc4OC)n[nH]c3c1)C(=O)N2 [Example 11, (1R,2S)-5′-methoxy-2-{3-[2-methoxy-5-(1-methyl-1H-pyrazol-4-yl)anilino]-1H-indazol-6-yl}spiro[cyclopropane-1,3′-indol]-2′(1′H)-one]
0.639 nM	COc1ccc2c(c1)[C@]1(C[C@H]1c1ccc3c(Nc4cc(-c5nccs5)ccc4OC)n[nH]c3c1)C(=O)N2 [Example 14, (1R,2S)-5′-methoxy-2-{3-[2-methoxy-5-(1,3-thiazol-2-yl)anilino]-1H-indazol-6-yl}spiro[cyclopropane-1,3′-indol]-2′(1′H)-one]
0.65 nM	COc1ccc2c(c1)[C@]1(C[C@H]1c1ccc3c(Nc4cc(-c5cscn5)ccc4OC)n[nH]c3c1)C(=O)N2 [Example 15, (1R,2S)-5′-methoxy-2-{3-[2-methoxy-5-(1,3-thiazol-4-yl)anilino]-1H-indazol-6-yl}spiro[cyclopropane-1,3′-indol]-2′(1′H)-one]
0.894 nM	COc1ccc2c(c1)[C@]1(C[C@H]1c1ccc3c(Nc4cc(-c5cocn5)ccc4OC)n[nH]c3c1)C(=O)N2 [Example 16, (1R,2S)-5′-methoxy-2-{3-[2-methoxy-5-(1,3-oxazol-4-yl)anilino]-1H-indazol-6-yl}spiro[cyclopropane-1,3′-indol]-2′(1′H)-one]
2 nM	COc1ccc2c(c1)[C@]1(C[C@H]1c1ccc3c(Nc4ccc(-c5nnn(C)n5)cc4OC)n[nH]c3c1)C(=O)N2 [Example 17, (1R,2S)-5′-methoxy-2-{3-[2-methoxy-4-(2-methyl-2H-tetrazol-5-yl)anilino]-1H-indazol-6-yl}spiro[cyclopropane-1,3′-indol]-2′(1′H)-one]
0.71 nM	COc1ccc2c(c1)[C@]1(C[C@H]1c1ccc3c(Nc4cc(-c5cnco5)ccc4OC)n[nH]c3c1)C(=O)N2 [Example 18, (1R,2S)-5′-methoxy-2-{3-[2-methoxy-5-(1,3-oxazol-5-yl)anilino]-1H-indazol-6-yl}spiro[cyclopropane-1,3′-indol]-2′(1′H)-one]
2.6 nM	COc1ccc2c(c1)[C@]1(C[C@H]1c1ccc3c(Nc4cc(-c5nnn(C)n5)ccc4OC)n[nH]c3c1)C(=O)N2 [Example 21, (1R,2S)-5′-methoxy-2-{3-[2-methoxy-5-(2-methyl-2H-tetrazol-5-yl)anilino]-1H-indazol-6-yl}spiro[cyclopropane-1,3′-indol]-2′(1′H)-one]

Source: US20260108527A1, “POLO LIKE KINASE 4 INHIBITORS” (ORIC Pharmaceuticals, Inc., priority 2022, published 2026)
